25 compounds from US12570659B2, “Bicyclic heteroaryl compounds useful as IRAK4 inhibitors” (BRISTOL-MYERS SQUIBB COMPANY, priority 2019, dated 2026) can be followed below.

pIC50: −log10 of the molar value. Bounds are passed on as bounds.

The target in one experiment is IRAK4 (Homo sapiens (Human), UniProt Q9NWZ3). In words: IRAK4 Inhibition Assay. It is filed as biochemical. Conditions: ATP 500 μM; IRAK4 0.6 nM; 60 min room temperature. As for the experimental part: IRAK4 Inhibition Assay The assays were performed in U-bottom 384-well plates. […] The reaction was initiated by the combination of IRAK4 with substrates and test compounds. The reaction mixture was incubated at room temperature for 60 min. and terminated by adding 45 μL of 35 mM EDTA to each sample. The reaction mixture was analyzed on the Caliper LABCHIP® 3000 (Caliper, Hopkinton, MA) by electrophoretic separation of the fluorescent substrate and phosphorylated product. Inhibition data were calculated by comparison to no enzyme control reactions for 100% inhibition and vehicle-only reactions for 0% inhibition.

The target of a further experiment is JAK3 kinase (Homo sapiens (Human), UniProt P52333). Kind of experiment: JAK3 Homogeneous Time Resolved Fluorescence (HTRF) Assay. It counts as binding. Conditions: for pIC50: competition binding with fluorescein-labeled ATP competitive probe; for Ratio of JAK3 IC50 to IRAK4 IC50: selectivity for IRAK4 over JAK3. The method, then: JAK3 Homogeneous Time Resolved Fluorescence (HTRF) Assay
A time resolved FRET-based competition binding assay was used to assess test article binding to JAK3 kinase. His-tagged or GST-tagged kinase at a concentration of 1 nM was incubated with 0.2 nM Tb-labeled detection antibody (anti-His or anti-GST), test compound, and fluorescein-labeled ATP competitive probe at a concentration corresponding to the probe's equilibrium dissociation constant for one hour. Fluorescence at 495 nm and 520 nm was measured using an EnVision microplate reader to quantify FRET between Tb-labeled detection antibody and fluorescein-labeled probe. Background subtracted FRET ratios were normalized to the maximum signal obtained in the absence of test compound. These values were converted to a percent inhibition. Percent inhibition was determined for test compounds at 11 concentrations. The IC50, defined as the concentration of the competing test compound needed to reduce specific binding of the probe by 50%, was calculated using the 4 parameter logistic equation to fit the data.
A general note: Time-resolved FRET reads energy transfer from a long-lived donor to a nearby acceptor.

By pIC50 is commonly meant the IC50 on a negative log10 scale, so that one unit is a factor of ten.

IRAK4, sequence (Q9NWZ3 whole entry, species assumed): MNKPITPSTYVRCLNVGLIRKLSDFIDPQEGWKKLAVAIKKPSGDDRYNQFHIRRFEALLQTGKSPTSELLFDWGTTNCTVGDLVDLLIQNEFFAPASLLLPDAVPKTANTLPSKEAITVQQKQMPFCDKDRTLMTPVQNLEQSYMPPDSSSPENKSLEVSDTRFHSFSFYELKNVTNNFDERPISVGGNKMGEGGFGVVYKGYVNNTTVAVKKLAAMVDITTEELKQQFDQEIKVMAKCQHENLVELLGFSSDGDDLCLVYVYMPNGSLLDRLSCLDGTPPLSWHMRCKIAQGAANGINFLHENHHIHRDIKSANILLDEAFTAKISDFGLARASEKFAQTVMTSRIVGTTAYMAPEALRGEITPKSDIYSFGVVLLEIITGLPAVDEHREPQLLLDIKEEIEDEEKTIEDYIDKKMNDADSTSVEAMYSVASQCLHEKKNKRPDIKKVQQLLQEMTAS
JAK3 kinase, sequence (P52333 whole entry): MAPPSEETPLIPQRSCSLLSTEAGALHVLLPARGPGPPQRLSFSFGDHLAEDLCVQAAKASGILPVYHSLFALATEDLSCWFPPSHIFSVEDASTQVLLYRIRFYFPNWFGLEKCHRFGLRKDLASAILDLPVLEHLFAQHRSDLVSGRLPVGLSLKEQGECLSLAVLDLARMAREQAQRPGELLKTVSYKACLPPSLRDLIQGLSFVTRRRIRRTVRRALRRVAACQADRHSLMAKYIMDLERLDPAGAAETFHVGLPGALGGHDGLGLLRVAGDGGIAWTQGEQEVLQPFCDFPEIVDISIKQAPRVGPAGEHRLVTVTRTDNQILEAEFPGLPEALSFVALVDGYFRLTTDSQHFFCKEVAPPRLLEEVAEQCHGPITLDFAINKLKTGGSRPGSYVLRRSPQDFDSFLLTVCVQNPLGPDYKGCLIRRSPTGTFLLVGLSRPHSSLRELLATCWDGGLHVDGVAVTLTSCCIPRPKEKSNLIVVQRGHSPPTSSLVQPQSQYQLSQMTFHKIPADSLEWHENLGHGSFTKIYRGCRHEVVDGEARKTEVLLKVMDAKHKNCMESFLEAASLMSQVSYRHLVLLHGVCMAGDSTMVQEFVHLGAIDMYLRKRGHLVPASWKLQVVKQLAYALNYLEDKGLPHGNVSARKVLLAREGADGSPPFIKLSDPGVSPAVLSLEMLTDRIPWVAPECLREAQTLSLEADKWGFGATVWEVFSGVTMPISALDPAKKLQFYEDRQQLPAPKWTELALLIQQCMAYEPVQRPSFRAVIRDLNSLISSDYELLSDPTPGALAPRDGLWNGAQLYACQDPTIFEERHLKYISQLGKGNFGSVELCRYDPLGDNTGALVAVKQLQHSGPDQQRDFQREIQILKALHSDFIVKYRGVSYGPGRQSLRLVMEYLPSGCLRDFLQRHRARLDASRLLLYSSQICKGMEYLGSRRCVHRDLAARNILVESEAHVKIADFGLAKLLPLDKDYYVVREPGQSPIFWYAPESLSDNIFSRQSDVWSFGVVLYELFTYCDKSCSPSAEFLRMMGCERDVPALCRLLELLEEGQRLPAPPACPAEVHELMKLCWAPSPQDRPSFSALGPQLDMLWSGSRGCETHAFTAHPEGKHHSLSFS

Consider `CC(C)Nc1c(C(=O)NC[C@@H](F)C(C)(C)O)cnn2cc(-c3cccnc3F)cc12` [Example 7, (R)—N-(2-fluoro-3-hydroxy-3-methylbutyl)-6-(2-fluoropyridin-3-yl)-4-(isopropylamino)pyrrolo[1,2-b]pyridazine-3-carboxamide], for which the negative logarithm of the IC50 (pIC50) at IRAK4 was 8.19. On JAK3 kinase, the negative logarithm of the IC50 (pIC50) was < 5.00 and the “Ratio of JAK3 IC50 to IRAK4 IC50” value is on record as >1563.

As for `CC(C)Nc1c(C(=O)N[C@H]2CC[C@H](O)CC2)cnn2cc(-c3cccnc3)cc12` [Example 58, N-((1r,4r)-4-hydroxycyclohexyl)-4-(isopropylamino)-6-(pyridin-3-yl)pyrrolo[1,2-b]pyridazine-3-carboxamide], the pIC50 on IRAK4 was 7.27. For the same compound, at JAK3 kinase, the pIC50 was < 4.30 and the “Ratio of JAK3 IC50 to IRAK4 IC50” value was >926.

`CC(C)(O)CCNc1c(C(=O)NC[C@@H](F)C(C)(C)O)cnn2cc(-c3cccnc3F)cc12` [Example 22, (R)—N-(2-fluoro-3-hydroxy-3-methylbutyl)-6-(2-fluoropyridin-3-yl)-4-((3-hydroxy-3-methylbutyl)amino)pyrrolo[1,2-b]pyridazine-3-carboxamide]: at IRAK4, the pIC50 is 6.74. Further, on JAK3 kinase, the negative-log IC50 (pIC50) is < 4.30 and the “Ratio of JAK3 IC50 to IRAK4 IC50” value is on record as >278.

For the compound `CC(=O)N[C@H]1CC[C@H](NC(=O)c2cnn3cc(-c4ccc(F)cn4)cc3c2NC(C)C)CC1` [Example 82, N-((1r,4r)-4-acetamidocyclohexyl)-6-(5-fluoropyridin-2-yl)-4-(isopropylamino)pyrrolo[1,2-b]pyridazine-3-carboxamide], the negative logarithm of the IC50 (pIC50) at IRAK4 is 7.47. Besides, at JAK3 kinase, the pIC50 is < 4.30 and the “Ratio of JAK3 IC50 to IRAK4 IC50” value is recorded as >1471.

Take `COc1cc(-c2cc3c(NC(C)C)c(C(=O)NCCC(C)(C)O)cnn3c2)c(F)cn1` [Example 78, 6-(5-fluoro-2-methoxypyridin-4-yl)-N-(3-hydroxy-3-methylbutyl)-4-(isopropylamino) pyrrolo[1,2-b]pyridazine-3-carboxamide]: the pIC50 on IRAK4 is 8.04. At JAK3 kinase, the negative logarithm of the IC50 (pIC50) was < 4.30 and the “Ratio of JAK3 IC50 to IRAK4 IC50” value was >5495.

Regarding `CNC(=O)c1cnc2cc(-c3ccc(C#N)cc3)nn2c1NC(C)C` [Example 118, 2-(4-cyanophenyl)-7-(isopropylamino)-N-methylpyrazolo[1,5-a] pyrimidine-6-carboxamide], the pIC50 on IRAK4 was 6.62.

On to `CC(C)Nc1c(C(=O)NC[C@@H](F)C(C)(C)O)cnc2cc(-c3cccc(N)c3)nn12` [Example 157, (R)-2-(3-aminophenyl)-N-(2-fluoro-3-hydroxy-3-methylbutyl)-7-(isopropylamino) pyrazolo[1,5-a]pyrimidine-6-carboxamide], for which, at IRAK4, the pIC50 is 7.51. Besides, on JAK3 kinase, the negative logarithm of the IC50 (pIC50) is < 4.30 and the “Ratio of JAK3 IC50 to IRAK4 IC50” value was >1613.

Take `CC(C)Nc1c(C(=O)NC[C@@H](F)C(C)(C)O)cnc2cc(-c3cccnc3)nn12` [Example 115, (R)—N-(2-fluoro-3-hydroxy-3-methylbutyl)-7-(isopropylamino)-2-(pyridin-3-yl) pyrazolo[1,5-a]pyrimidine-6-carboxamide]: the negative logarithm of the IC50 (pIC50) at IRAK4 was 7.60. Besides, on JAK3 kinase, the negative-log IC50 (pIC50) is < 5.00 and the “Ratio of JAK3 IC50 to IRAK4 IC50” value is >400.

With `CC(C)Nc1c(C(=O)NC[C@@H](F)C(C)(C)O)cnc2cc(-c3cccc(F)c3)nn12` [Example 140, (R)—N-(2-fluoro-3-hydroxy-3-methylbutyl)-2-(3-fluorophenyl)-7-(isopropylamino)pyrazolo[1,5-a]pyrimidine-6-carboxamide], the pIC50 at IRAK4 was 7.09. Also, on JAK3 kinase, the pIC50 was < 4.30 and the “Ratio of JAK3 IC50 to IRAK4 IC50” value is recorded as >610.

Regarding `CNC(=O)c1cnc2cc(-c3ccnc(N4CCOCC4)c3)nn2c1NC(C)C` [Example 119, 7-(isopropylamino)-N-methyl-2-(2-morpholinopyridin-4-yl)pyrazolo[1,5-a]pyrimidine-6-carboxamide], the pIC50 on IRAK4 was 5.53.

As to `CC(C)Nc1c(C(=O)NC[C@@H](F)C(C)(C)O)cnn2cc(-c3cccnc3)nc12` [Example 99, (R)—N-(2-fluoro-3-hydroxy-3-methylbutyl)-8-(isopropylamino)-2-(pyridin-3-yl) imidazo[1,2-b]pyridazine-7-carboxamide], the pIC50 was 7.18 at IRAK4 and < 5.00 at JAK3 kinase. Also, the “Ratio of JAK3 IC50 to IRAK4 IC50” value on JAK3 kinase was >152.

Turning to `Cc1ncccc1-c1cc2ncc(C(=O)NC[C@@H](F)C(C)(C)O)c(NC(C)C)n2n1` [Example 132, (R)—N-(2-fluoro-3-hydroxy-3-methylbutyl)-7-(isopropylamino)-2-(2-methylpyridin-3-yl)pyrazolo[1,5-a]pyrimidine-6-carboxamide], the negative-log IC50 (pIC50) at IRAK4 is 6.64. Further, at JAK3 kinase, the negative logarithm of the IC50 (pIC50) was < 4.30 and the “Ratio of JAK3 IC50 to IRAK4 IC50” value was >217.

Turning to `CC(C)Nc1c(C(=O)NC[C@@H](F)C(C)(C)O)cnc2cc(-c3cnn(C)c3)nn12` [Example 126, (R)—N-(2-fluoro-3-hydroxy-3-methylbutyl)-7-(isopropylamino)-2-(1-methyl-1H-pyrazol-4-yl)pyrazolo[1,5-a]pyrimidine-6-carboxamide], the negative logarithm of the IC50 (pIC50) on IRAK4 is 6.62. At JAK3 kinase, the pIC50 was < 4.30 and the “Ratio of JAK3 IC50 to IRAK4 IC50” value was >208.

Regarding `CC(C)Nc1c(C(=O)NC[C@@H](F)C(C)(C)O)cnc2cc(-c3cncc(F)c3)nn12` [Example 130, (R)—N-(2-fluoro-3-hydroxy-3-methylbutyl)-2-(5-fluoropyridin-3-yl)-7-(isopropylamino) pyrazolo[1,5-a]pyrimidine-6-carboxamide], the negative logarithm of the IC50 (pIC50) at IRAK4 was 6.96. Also, on JAK3 kinase, the pIC50 was < 5.00 and the “Ratio of JAK3 IC50 to IRAK4 IC50” value is recorded as >91.

With `CC(C)Nc1c(C(=O)NC[C@@H](F)C(C)(C)O)cnc2cc(-c3cccc(C#N)c3)nn12` [Example 133, (R)-2-(3-cyanophenyl)-N-(2-fluoro-3-hydroxy-3-methylbutyl)-7-(isopropylamino)pyrazolo[1,5-a] pyrimidine-6-carboxamide], the negative logarithm of the IC50 (pIC50) at IRAK4 is 6.89. Also, at JAK3 kinase, the pIC50 is < 5.70 and the “Ratio of JAK3 IC50 to IRAK4 IC50” value is listed as >15.

Regarding `CNC(=O)c1cnc2cc(-c3ccccc3)nn2c1NC1CCCCC1` [Example 117, 7-(cyclohexylamino)-N-methyl-2-phenylpyrazolo[1,5-a]pyrimidine-6-carboxamide], at IRAK4, the negative-log IC50 (pIC50) is 5.25.

Take `CC(C)Nc1c(C(=O)NC[C@@H](F)C(C)(C)O)cnn2cc(-c3ccnn3C)cc12` [Example 33, (R)—N-(2-fluoro-3-hydroxy-3-methylbutyl)-4-(isopropylamino)-6-(1-methyl-1H-pyrazol-5-yl) pyrrolo[1,2-b]pyridazine-3-carboxamide]: the negative logarithm of the IC50 (pIC50) on IRAK4 is 7.59. Moreover, on JAK3 kinase, the negative logarithm of the IC50 (pIC50) is < 4.30 and the “Ratio of JAK3 IC50 to IRAK4 IC50” value is >1923.

As to `CNC(=O)c1cnc2cc(-c3ccccc3)nn2c1N[C@H](CO)Cc1ccccc1` [Example 116, (S)-7-((1-hydroxy-3-phenylpropan-2-yl)amino)-N-methyl-2-phenylpyrazolo[1,5-a]pyrimidine-6-carboxamide], on IRAK4, the pIC50 was 5.79.

Take `CC(C)Nc1c(C(=O)NC[C@@H](F)C(C)(C)O)cnc2cc(-c3nccs3)nn12` [Example 158, (R)—N-(2-fluoro-3-hydroxy-3-methylbutyl)-7-(isopropylamino)-2-(thiazol-2-yl)pyrazolo[1,5-a]pyrimidine-6-carboxamide]: the negative-log IC50 (pIC50) on IRAK4 is 7.70.

Turning to `CNC(=O)[C@H]1CC[C@H](NC(=O)c2cnn3cc(-c4ccc(C(N)=O)nc4)cc3c2NC(C)C)CC1` [Example 95, 6-(6-carbamoylpyridin-3-yl)-4-(isopropylamino)-N-((1r,4r)-4-(methylcarbamoyl)cyclohexyl)pyrrolo[1,2-b]pyridazine-3-carboxamide], the pIC50 on IRAK4 is 7.46.

As for `CNC(=O)c1cnc2cc(-c3ccc4ncsc4c3)nn2c1NC(C)C` [Example 121, 2-(benzo[d]thiazol-6-yl)-7-(isopropylamino)-N-methylpyrazolo[1,5-a]pyrimidine-6-carboxamide], the pIC50 at IRAK4 is 6.23.

Regarding `CC(C)Nc1c(C(=O)NC[C@@H](F)C(C)(C)O)cnn2cc(-c3nccs3)cc12` [Example 17, (R)—N-(2-fluoro-3-hydroxy-3-methylbutyl)-4-(isopropylamino)-6-(thiazol-2-yl)pyrrolo[1,2-b]pyridazine-3-carboxamide], the negative-log IC50 (pIC50) on IRAK4 is 8.20.

Take `CNC(=O)c1cnc2cc(-c3ccncc3)nn2c1NC(C)C` [Example 120, 7-(isopropylamino)-N-methyl-2-(pyridin-4-yl)pyrazolo[1,5-a]pyrimidine-6-carboxamide]: the negative-log IC50 (pIC50) on IRAK4 was 6.39.

For the compound `CNC(=O)[C@H]1CC[C@H](NC(=O)c2cnn3cc(-c4ccc(C#N)nc4)cc3c2NC(C)C)CC1` [Example 94, 6-(6-cyanopyridin-3-yl)-4-(isopropylamino)-N-((1r,4r)-4-(methylcarbamoyl)cyclohexyl) pyrrolo[1,2-b]pyridazine-3-carboxamide], the pIC50 at IRAK4 was 7.85.

For `CC(C)(O)[C@H](F)CNC(=O)c1cnn2cc(-c3ccccc3)cc2c1NC1CCCC1` [Example 29, (R)-4-(cyclopentylamino)-N-(2-fluoro-3-hydroxy-3-methylbutyl)-6-phenylpyrrolo[1,2-b] pyridazine-3-carboxamide], the pIC50 on IRAK4 is 6.74.
